Test results taken from patent US6410792B1, “Amide derivatives and methods for using the same as selective neuropeptide Y receptor antagonists” (Bayer Corporation, priority 1997, dated 2002).
Where two headings read alike, the source gives them in different places.

Key:
[1] = target: T1, Y2 receptor (Homo sapiens, UniProt P49146); experiment: Y2 receptor binding assay ([125I]PYY, membrane protein); conditions: read-out: hNPY2 IC50
T1 sequence (P49146 1-381): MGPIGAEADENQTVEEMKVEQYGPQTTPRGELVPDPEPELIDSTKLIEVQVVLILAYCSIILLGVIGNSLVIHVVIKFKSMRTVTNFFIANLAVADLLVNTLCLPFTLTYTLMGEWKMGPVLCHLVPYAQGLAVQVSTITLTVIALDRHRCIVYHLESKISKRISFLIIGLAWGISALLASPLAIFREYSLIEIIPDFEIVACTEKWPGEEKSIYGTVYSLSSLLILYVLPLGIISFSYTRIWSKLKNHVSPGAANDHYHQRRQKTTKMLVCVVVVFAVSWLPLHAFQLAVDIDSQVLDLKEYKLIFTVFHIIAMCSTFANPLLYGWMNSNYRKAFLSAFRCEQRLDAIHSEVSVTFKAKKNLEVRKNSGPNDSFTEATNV
Procedure: B. Human Y2 and Y4/PP1 Receptor Binding Assays
Binding assays were performed on GF/C Millipore 96-well plates pretreated with 0.02% polyethylenimine. The binding buffer for rat Y2 binding is Krebs-Ringer bicarbonate (pH 7.4) containing 0.01% BSA and 0.005% bacitracin. Samples consist of membrane protein, 25 pM [1251]PYY and drug dilution. Nonspecific binding is defined by 1 μM NPY. The binding buffer for human Y4/PP1 binding consists of 137 mM NaCl, 5.4 mM KCl, 0.44 mM KH2PO4, 1.26 mM CaCl2, 0.81 mM MgSO4, 20 mM HEPES, 1 mM dithiothreitol, 0.1% bacitracin, 100 mg/l streptomycin sulfate, 1 mg/l aprotinin, 10 mg/ml soybean trypsin inhibitor and 0.3% BSA, pH 7.4. Samples consist of membrane protein, 50 pM human [1251]human PP (hPP: NEN DuPont, Boston, Mass.) and drug dilution. 1 μM hPP is used to define nonspecific binding.
After a 2 hour incubation at room temperature with constant mixing, the samples are aspirated on a vacuum manifold, and rinsed with ice-cold binding buffer. The amount of radioactivity in each well is quantitated with either gamma counting or liquid scintillation.

[2] = target: T2, Human NPY5 receptor (Homo sapiens, UniProt Q15761); experiment: Human NPY5 receptor binding assay ([125I]PYY, membrane protein); conditions: [125I]PYY binding, read-out: hNPY5 IC50
T2 sequence (Q15761 1-445): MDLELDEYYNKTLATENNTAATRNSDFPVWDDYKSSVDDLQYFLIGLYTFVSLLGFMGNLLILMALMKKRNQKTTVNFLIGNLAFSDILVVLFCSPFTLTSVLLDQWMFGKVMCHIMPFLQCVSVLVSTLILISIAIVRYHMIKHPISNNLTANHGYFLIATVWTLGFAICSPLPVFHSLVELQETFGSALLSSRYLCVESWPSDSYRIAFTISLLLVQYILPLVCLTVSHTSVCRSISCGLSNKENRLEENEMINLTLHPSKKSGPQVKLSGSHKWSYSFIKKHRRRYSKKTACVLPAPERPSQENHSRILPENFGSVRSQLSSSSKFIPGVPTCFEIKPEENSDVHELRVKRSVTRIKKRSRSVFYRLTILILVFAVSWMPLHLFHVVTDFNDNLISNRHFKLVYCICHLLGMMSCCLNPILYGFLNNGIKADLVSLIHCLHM
Procedure: C. Human and Rat NPY5 Receptor Binding Assays
Binding assays are performed on GF/C Millipore 96well plates pretreated with 0.02% polyethylenimine. The binding buffer is 25 mM Tris, 120 mM NaCl, 5 mM KCl, 1.2 mM KH2PO4, 2.5 mM CaCl2, 1.2 mM MgSO4, 0.1% BSA and 0.5 mg/ml bacitracin, pH 7.4. Samples consist of membrane protein, 75-100 pM [125I]PYY (porcine, NEN-DuPont) and drug dilution. Nonspecific binding is defined by 1 μM PYY. After a 2 hour incubation at room temperature with constant mixing, the samples are aspirated on a vacuum manifold, and rinsed with ice-cold binding buffer. The amount of radioactivity in each well is quantitated with either gamma counting or liquid scintillation.

[3] = [125I]PYY binding, membrane protein

Compound | IC50 [1, 3] | IC50 [2] | IC50 [1]
O=C(CN1CCC(O)CC1)Nc1ccc(C(=O)c2ccccc2)cc1 [Compound 42, N-(4-Benzoyl-phenyl)-2-(4-hydroxy-piperidin-1-yl)-acetamide] | > 5 µM | 1.6 µM | 
O=C(CNCC1CCNCC1)Nc1ccc(C(=O)c2ccccc2)cc1 [Compound 43, N-(4-Benzoyl-phenyl)-2-[(piperidin-4-ylmethyl)-amino]-acetamide] | > 5 µM | > 10 µM | 
N#CC1(c2ccccc2)CCN(CC(=O)Nc2ccc(C(=O)c3ccccc3)cc2)CC1 [Compound 44, N-(4-Benzoyl-phenyl)-2-(4-cyano-4-phenyl-piperidin-1-yl)-acetamide] |  | 0.093 µM | > 5 µM
O=C(CN1CCC(N2CCCC2)CC1)Nc1ccc(C(=O)c2ccccc2)cc1 [Compound 45, N-(4-Benzoyl-phenyl)-2-(4-pyrrolidin-1-yl-piperidin-1-yl)-acetamide] | > 5 µM | 8.5 µM | 
CNC1(C(N)=O)CCN(CC(=O)Nc2ccc(C(=O)c3ccccc3)cc2)CC1 [Compound 46, 1-[(4-Benzoyl-phenylcarbamoyl)-methyl]-4-methylamino-piperidine-4-carboxylic acid amide] | > 5 µM | 0.005 µM | 
NC(=O)C1(Nc2ccccc2)CCN(CC(=O)Nc2ccc(C(=O)c3ccccc3)cc2)CC1 [Compound 47, 1-[(4-Benzoyl-phenylcarbamoyl)-methyl]-4-phenylamino-piperidine-4-carboxylic acid amide] | > 5 µM | 1.2 µM | 
CCNC1(C(N)=O)CCN(CC(=O)Nc2ccc(C(=O)c3ccccc3)cc2)CC1 [Compound 48, 1-[(4-Benzoyl-phenylcarbamoyl)-methyl]-4-ethylamino-piperidine-4-carboxylic acid amide] | > 5 µM | 0.02 µM | 
CN(C)C1CCN(CC(=O)Nc2ccc(C(=O)c3ccccc3)cc2)CC1 [Compound 49, N-(4-Benzoyl-phenyl)-2-(4-dimethylamino-piperidin-1-yl)-acetamide] | > 5 µM | 8.8 µM | 
CC1CCN(CC(=O)Nc2ccc(C(=O)c3ccccc3)cc2)CC1 [Compound 50, N-(4-Benzoyl-phenyl)-2-(4-methyl-piperidin-1-yl)-acetamide] | > 5 µM | 2.2 µM | 
CC1(C)CCN(CC(=O)Nc2ccc(C(=O)c3ccccc3)cc2)CC1 [Compound 51, N-(4-Benzoyl-phenyl)-2-(4,4-dimethyl-piperidin-1-yl)-acetamide] | > 5 µM | 3.3 µM | 
O=C(CN1CCC(CCC2CCNCC2)CC1)Nc1ccc(C2CCCCC2)cc1 [Compound 54, N-(4-Cyclohexyl-phenyl)-2-[4-(2-piperidin-4-yl-ethyl)-piperidin-1-yl]-acetamide] | > 5 µM | 7.3 µM | 
O=C(CN1CCC(CCC2CCNCC2)CC1)Nc1ccc(C(=O)c2ccccc2)cc1 [Compound 55, n-(4-Benzoyl-phenyl)-2-[4-(2-piperidin-4-ylethyl)-piperidin-1-yl]-acetamide] | > 5 µM | > 10 µM | 
CC(=O)NCC1(c2ccccc2)CCN(CC(=O)Nc2ccc(C(=O)c3ccccc3)cc2)CC1 [Compound 56, 2-[4-(Acetylamino-methyl)-4-phenyl-piperidin-1-yl]-N-(4-benzoyl-phenyl)-acetamide] | > 5 µM | 0.208 µM | 
N#CC(c1ccccc1)C1CCN(CC(=O)Nc2ccc(C(=O)c3ccccc3)cc2)CC1 (centres unmarked) [Compound 57, N-(4-Benzoyl-phenyl)-2-[4-(cyano-phenyl-methyl)-piperidin-1-yl]-acetamide] | > 5 µM | 0.005 µM | 
O=C(CN1CCC2(CC1)C(=O)NCN2c1ccccc1)Nc1ccc(C(=O)c2ccccc2)cc1 [Compound 58, N-(4-Benzoyl-phenyl)-2-(4-oxo-1-phenyl-1,3,8-triaz-spiro[4.5]dec-8-yl)-acetamide] | > 5 µM | 2 µM | 
CC(O)C1CCN(CC(=O)Nc2ccc(C3CCCCC3)cc2)CC1 (centres unmarked) [Compound 59, N-(4-Cyclohexyl-phenyl)-2-[4-(1-hydroxy-ethyl)-piperidin-1-yl]-acetamide] | > 5 µM | 0.65 µM | 
O=C(CN1CCC(O)(CCCc2ccccc2)CC1)Nc1ccc(C(=O)c2ccccc2)cc1 [Compound 60, N-(4-Benzoyl-phenyl)-2-[4-hydroxy-4-(3-phenyl-propyl)-piperidin-1-yl]-acetamide] | > 5 µM | 4.2 µM | 
O=C(CN1CCC(O)(CCCc2ccccc2)CC1)Nc1ccc(C2CCCCC2)cc1 [Compound 61, N-(4-Cyclohexyl-phenyl)-2-[4-hydroxy-4-(3-phenyl-propyl)-piperidin-1-yl]-acetamide] | > 5 µM | 9.5 µM | 
O=C(CN1CCC(O)(c2cccc(C(F)(F)F)c2)CC1)Nc1ccc(C(=O)c2ccccc2)cc1 [Compound 63, N-(4-Benzoyl-phenyl)-2-[4-hydroxy-4-(3-trifluoromethyl-phenyl)-piperidin-1-yl]-acetamide] | > 5 µM | 0.57 µM | 
CN(C)C1(C(N)=O)CCN(CC(=O)Nc2ccc(C(=O)c3ccccc3)cc2)CC1 [Compound 64, 1-[(4-Benzoyl-phenylcarbamoyl)-methyl]-4-dimethylamino-piperidine-4-carboxylic acid amide] | > 5 µM | 4.8 µM | 
CCCOC1(c2ccccc2)CCN(CC(=O)Nc2ccc(C(=O)c3ccccc3)cc2)CC1 [Compound 66, N-(4-Benzoyl-phenyl)-2-(4-phenyl-4-propoxy-piperidin-1-yl)-acetamide] | > 5 µM | 0.78 µM | 
O=C(CN1CCC(CCCC2CCN(CCO)CC2)CC1)Nc1ccc(C(=O)c2ccccc2)cc1 [Compound 67, N-(4-Benzoyl-phenyl)-2-(4-{3-[1-(2-hydroxy-ethyl)-piperidin-4-yl]-propyl}-piperidin-1-yl)-acetamide] | > 5 µM | > 10 µM | 
O=C(CN1CCC(CCCC2CCN(CCO)CC2)CC1)Nc1ccc(C2CCCCC2)cc1 [Compound 68, N-(4-Cyclohexyl-phenyl)-2-(4-{3-[1-(2-hydroxy-ethyl)-piperidin-4-yl]-propyl}-piperidin-1-yl)-acetamide] | > 5 µM | 9.7 µM | 
CCC(=O)C1(c2ccccc2)CCN(CC(=O)Nc2ccc(C(=O)c3ccccc3)cc2)CC1 [Compound 69, N-(4-Benzoyl-phenyl)-2-(4-phenyl-4-propionyl-piperidin-1-yl)-acetamide] | > 5 µM | 0.003 µM | 
CC(O)C1CCN(CC(=O)Nc2ccc(C(=O)c3ccccc3)cc2)CC1 (centres unmarked) [Compound 70, N-(4-Benzoyl-phenyl)-2-[4-(1-hydroxy-ethyl)-piperidin-1-yl]-acetamide] | > 5 µM | 3.7 µM | 
Cc1ccc(C2(O)CCN(CC(=O)Nc3ccc(C(=O)c4ccccc4)cc3)CC2)cc1 [Compound 71, N-(4-Benzoyl-phenyl)-2-(4-hydroxy-4-p-tolyl-piperidin-1-yl)-acetamide] | > 5 µM | 0.22 µM | 
O=C(CN1CCC(C(=O)N2CCCCC2)(c2ccccc2)CC1)Nc1ccc(C2CCCCC2)cc1 [Compound 72, N-(4-Cyclohexyl-phenyl)-2-[4-phenyl-4-(piperidine-1-carbonyl)-piperidin-1-yl]-acetamide] | > 5 µM | 1 µM | 
O=C(CN1CCC(C(=O)N2CCCCC2)(c2ccccc2)CC1)Nc1ccc(C(=O)c2ccccc2)cc1 [Compound 73, N-(4-Benzoyl-phenyl)-2-[4-phenyl-4-(piperidine-1-carbonyl)-piperidin-1-yl]-acetamide] | > 5 µM | > 5 µM | 
